Experiments:
Assay in all cases: relative viability (nuclei count vs DMSO), 5 days (fraction); higher = more cells survive
NCI-H838 = system: NCI-H838
Method in brief: (§1)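 Relative viability divides the nuclei count in treated wells by that in vehicle wells. Lung cancer cell lines were seeded in 1536-well plates, dosed by pin tool the next day, and fixed and stained after 5 days in one step with final 0.05% Triton X-100, 1% formaldehyde and 1 ug/ml Hoechst. Dosing was a single drug or a fixed anchor-drug dose plus five library-drug doses (not always all listed) in √10 steps, and values are medians of duplicate plates imaged at 4×.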

PC-14 = system: PC-14
Method in brief: as §1

HCC-15 = system: HCC-15
Method in brief: as §1

NCI-H650 = system: NCI-H650
Method in brief: as §1

NCI-H2126 = system: NCI-H2126
Method in brief: as §1

NCI-H1993 = system: NCI-H1993
Method in brief: as §1

NCI-H358 = system: NCI-H358
Method in brief: as §1

NCI-H1915 = system: NCI-H1915
Method in brief: as §1

LU99A = system: LU99A
Method in brief: as §1

HARA = system: HARA
Method in brief: as §1

NCI-H2347 = system: NCI-H2347
Method in brief: as §1

COR-L23 = system: COR-L23
Method in brief: as §1

NCI-H1355 = system: NCI-H1355
Method in brief: as §1

LC-2-ad = system: LC-2-ad
Method in brief: as §1

HOP-62 = system: HOP-62
Method in brief: as §1

NCI-H2085 = system: NCI-H2085
Method in brief: as §1

UMC-11 = system: UMC-11
Method in brief: as §1

SW 1573 = system: SW 1573
Method in brief: as §1

HCC-44 = system: HCC-44
Method in brief: as §1

NCI-H2023 = system: NCI-H2023
Method in brief: as §1

NCI-H1651 = system: NCI-H1651
Method in brief: as §1

ABC-1 = system: ABC-1
Method in brief: as §1

EPLC-272H = system: EPLC-272H
Method in brief: as §1

CCN(CC)CCCCNc1ncc2cc(-c3cc(OC)cc(OC)c3)c(NC(=O)NC(C)(C)C)nc2n1 + CS(=O)(=O)N1CCN(Cc2cc3nc(-c4cccc5[nH]ncc45)nc(N4CCOCC4)c3s2)CC1 [Pictilisib] (partner 1 µM)
relative viability (NCI-H838; first compound 0.01 µM): 0.441
relative viability (NCI-H838; first compound 0.03162 µM): 0.4
relative viability (NCI-H838; first compound 0.1 µM): 0.395
relative viability (NCI-H838; first compound 0.3162 µM): 0.383
relative viability (NCI-H838; first compound 1 µM): 0.244
relative viability (PC-14; first compound 0.01 µM): 0.702
relative viability (PC-14; first compound 0.03162 µM): 0.624
relative viability (PC-14; first compound 0.1 µM): 0.658
relative viability (PC-14; first compound 0.3162 µM): 0.807
relative viability (PC-14; first compound 1 µM): 0.509
relative viability (HCC-15; first compound 0.01 µM): 0.813
relative viability (HCC-15; first compound 0.03162 µM): 0.813
relative viability (HCC-15; first compound 0.1 µM): 0.766
relative viability (HCC-15; first compound 0.3162 µM): 0.929
relative viability (HCC-15; first compound 1 µM): 0.715
relative viability (NCI-H650; first compound 0.01 µM): 0.874
relative viability (NCI-H650; first compound 0.03162 µM): 0.889
relative viability (NCI-H650; first compound 0.1 µM): 0.973
relative viability (NCI-H650; first compound 0.3162 µM): 0.998
relative viability (NCI-H650; first compound 1 µM): 0.925
relative viability (NCI-H2126; first compound 0.01 µM): 0.498
relative viability (NCI-H2126; first compound 0.03162 µM): 0.489
relative viability (NCI-H2126; first compound 0.1 µM): 0.508
relative viability (NCI-H2126; first compound 0.3162 µM): 0.523
relative viability (NCI-H2126; first compound 1 µM): 0.477
relative viability (NCI-H1993; first compound 0.01 µM): 0.759
relative viability (NCI-H1993; first compound 0.03162 µM): 0.947
relative viability (NCI-H1993; first compound 0.1 µM): 0.861
relative viability (NCI-H1993; first compound 0.3162 µM): 0.86
relative viability (NCI-H1993; first compound 1 µM): 0.91
relative viability (NCI-H358; first compound 0.01 µM): 0.353
relative viability (NCI-H358; first compound 0.03162 µM): 0.282
relative viability (NCI-H358; first compound 0.1 µM): 0.38
relative viability (NCI-H358; first compound 0.3162 µM): 0.35
relative viability (NCI-H358; first compound 1 µM): 0.3
relative viability (NCI-H1915; first compound 0.01 µM): 0.998
relative viability (NCI-H1915; first compound 0.03162 µM): 0.92
relative viability (NCI-H1915; first compound 0.1 µM): 0.93
relative viability (NCI-H1915; first compound 0.3162 µM): 1.03
relative viability (NCI-H1915; first compound 1 µM): 0.915
relative viability (LU99A; first compound 0.01 µM): 0.31
relative viability (LU99A; first compound 0.03162 µM): 0.396
relative viability (LU99A; first compound 0.1 µM): 0.345
relative viability (LU99A; first compound 0.3162 µM): 0.313
relative viability (LU99A; first compound 1 µM): 0.277
relative viability (HARA; first compound 0.01 µM): 0.421
relative viability (HARA; first compound 0.03162 µM): 0.356
relative viability (HARA; first compound 0.1 µM): 0.307
relative viability (HARA; first compound 0.3162 µM): 0.485
relative viability (HARA; first compound 1 µM): 0.176
relative viability (NCI-H2347; first compound 0.01 µM): 0.772
relative viability (NCI-H2347; first compound 0.03162 µM): 0.656
relative viability (NCI-H2347; first compound 0.1 µM): 0.611
relative viability (NCI-H2347; first compound 0.3162 µM): 0.89
relative viability (NCI-H2347; first compound 1 µM): 0.655
relative viability (COR-L23; first compound 0.01 µM): 0.781
relative viability (COR-L23; first compound 0.03162 µM): 0.955
relative viability (COR-L23; first compound 0.1 µM): 0.824
relative viability (COR-L23; first compound 0.3162 µM): 0.809
relative viability (COR-L23; first compound 1 µM): 0.8
relative viability (NCI-H1355; first compound 0.01 µM): 0.327
relative viability (NCI-H1355; first compound 0.03162 µM): 0.375
relative viability (NCI-H1355; first compound 0.1 µM): 0.478
relative viability (NCI-H1355; first compound 0.3162 µM): 0.569
relative viability (NCI-H1355; first compound 1 µM): 0.461
relative viability (LC-2-ad; first compound 0.01 µM): 0.481
relative viability (LC-2-ad; first compound 0.03162 µM): 0.449
relative viability (LC-2-ad; first compound 0.1 µM): 0.547
relative viability (LC-2-ad; first compound 0.3162 µM): 0.544
relative viability (LC-2-ad; first compound 1 µM): 0.392
relative viability (HOP-62; first compound 0.01 µM): 0.732
relative viability (HOP-62; first compound 0.03162 µM): 0.772
relative viability (HOP-62; first compound 0.1 µM): 0.582
relative viability (HOP-62; first compound 0.3162 µM): 0.747
relative viability (HOP-62; first compound 1 µM): 0.985
relative viability (NCI-H2085; first compound 0.01 µM): 0.432
relative viability (NCI-H2085; first compound 0.03162 µM): 0.46
relative viability (NCI-H2085; first compound 0.1 µM): 0.233
relative viability (NCI-H2085; first compound 0.3162 µM): 0.512
relative viability (NCI-H2085; first compound 1 µM): 0.46
relative viability (UMC-11; first compound 0.01 µM): 0.85
relative viability (UMC-11; first compound 0.03162 µM): 0.806
relative viability (UMC-11; first compound 0.1 µM): 0.987
relative viability (UMC-11; first compound 0.3162 µM): 0.989
relative viability (UMC-11; first compound 1 µM): 0.752
relative viability (SW 1573; first compound 0.01 µM): 0.528
relative viability (SW 1573; first compound 0.03162 µM): 0.48
relative viability (SW 1573; first compound 0.1 µM): 0.615
relative viability (SW 1573; first compound 0.3162 µM): 0.66
relative viability (SW 1573; first compound 1 µM): 0.507
relative viability (HCC-44; first compound 0.01 µM): 0.687
relative viability (HCC-44; first compound 0.03162 µM): 0.746
relative viability (HCC-44; first compound 0.1 µM): 0.603
relative viability (HCC-44; first compound 0.3162 µM): 0.635
relative viability (HCC-44; first compound 1 µM): 0.451
relative viability (NCI-H2023; first compound 0.01 µM): 0.22
relative viability (NCI-H2023; first compound 0.03162 µM): 0.222
relative viability (NCI-H2023; first compound 0.1 µM): 0.221
relative viability (NCI-H2023; first compound 0.3162 µM): 0.232
relative viability (NCI-H2023; first compound 1 µM): 0.193
relative viability (NCI-H1651; first compound 0.01 µM): 0.693
relative viability (NCI-H1651; first compound 0.03162 µM): 0.706
relative viability (NCI-H1651; first compound 0.1 µM): 0.624
relative viability (NCI-H1651; first compound 0.3162 µM): 0.466
relative viability (NCI-H1651; first compound 1 µM): 0.275
relative viability (ABC-1; first compound 0.01 µM): 0.686
relative viability (ABC-1; first compound 0.03162 µM): 0.66
relative viability (ABC-1; first compound 0.1 µM): 0.736
relative viability (ABC-1; first compound 0.3162 µM): 0.818
relative viability (ABC-1; first compound 1 µM): 0.671
relative viability (EPLC-272H; first compound 0.01 µM): 0.288
relative viability (EPLC-272H; first compound 0.1 µM): 0.33
relative viability (EPLC-272H; first compound 0.3162 µM): 0.298
relative viability (EPLC-272H; first compound 1 µM): 0.184

— the supplement of paper PMC10307832
